Test results from patent US7647217B2, “Structure of the farnesoid X receptor ligand binding domain and methods of use therefor” (The Salk Institute for Biological Studies, priority 2002, dated 2010).

Key:
GAL4-FXR LBD = molecular target: T1, GAL4-FXR LBD (Rattus norvegicus, UniProt Q62735); test: GAL4 DBD-FXR LBD chimeric receptor transcriptional activation assay (with/without RXR); format: cell-based; conditions: for selectivity for FXR relative to other NHRs: chimeric NHR constructs; for efficacy compared with GW4064: in the absence of RXR; for activation of chimeric FXR construct: in the presence and absence of RXR
T1 construct: expressed in transfected cells; host or cells: CV-1 (monkey)
T1 sequence (Q62735 245-469 limits assumed): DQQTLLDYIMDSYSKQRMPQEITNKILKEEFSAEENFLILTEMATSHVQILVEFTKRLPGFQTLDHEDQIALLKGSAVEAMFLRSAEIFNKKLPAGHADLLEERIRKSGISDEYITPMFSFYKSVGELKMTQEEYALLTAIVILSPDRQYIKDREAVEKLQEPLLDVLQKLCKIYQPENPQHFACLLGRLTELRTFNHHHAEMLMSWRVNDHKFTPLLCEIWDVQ
Protocol: FIGS. 3A-3E collectively show the results of ligand activation of CV-1 cells co-transfected with a luciferase reporter gene with a variety of receptor expression constructs. […] FIGS. 3C-3E show the results of CV-1 cells transiently transfected with the indicated reporter constructs, treated with either DMSO or 10 μM of the compounds fexaramine (3C), fexarine (3D), fexarene (3E). Reporter activity was normalized to the internal control and the data plotted as fold activation relative to untreated cells. All transfections contained CMX-βgal as an internal control.
The expression plasmids pCMX, pCMX-LacZ, pCMX-mFXRFL, pCMX-hRXRFL, pCMX-GALDBD-rFXRLBD and other pCUX-GALDBD-NR LBDs (hRXRα, hPPARαγδ, mPXR, hPXR, hLXRα, HTRβ, hRARβ, mCAR, mERR3 and hVDR) have been described elsewhere (Blumberg et al. (1998). SXR, a novel steroid and xenobiotic-sensing nuclear receptor. Genes Dev. 12(20), 3195-205). The reporter plasmids pMH2004-TK-luc, pTKECRE*6-luc, pTKER-8*2-luc and pMRP-2-luc also have been described elsewhere. The hPLTP-luc promoter was kindly provided by Dr Dennis Dowhan and the hIBABP-luc promoter was created from a plasmid provided by Dr Philippe Besnard.
(§1) For transfection of these constructs, monkey CV-1 HEPG2 and HEK293T cells were grown in DMEM supplemented with 10% FBS, 50 U/ml penicillin G, and 50 μg/ml streptomycin sulfate at 37° C. in 7% CO2. CV-1 cells (60%-70% confluence, 48-well plate) were cotransfected with 16.6 ng of the appropriate expression vector, 100 ng of reporter plasmid, and 100 ng of pCMX-LacZ in 200 μl of DMEM containing 10% FBS by the N-[1-(2,3-dioleoyloxy)propyl]-N,N,N-trimethylammonium methylsulfate (DOTAP)-mediated procedure. After 24 hr, the medium was replaced, and cells were harvested and assayed for luciferase activity 36-48 hr after transfection. The luciferase activity was normalized to the level of β-galactosidase activity. Each transfection was performed in triplicate and repeated at least three times.
Cell-based transcriptional activation assays using chimeric nuclear hormone receptor (NHR) constructs were established to measure the selectivity of the compounds to FXR relative to other NHRs (Forman et al. (1995). Identification of a nuclear receptor that is activated by farnesol metabolites. Cell 81, 687-693). These assays used fusion proteins with the yeast GAL4 DNA binding domain connected to the ligand-binding domain (LBD) of NHRs. These constructs were co-transfected with a thymidine kinase C minimal promoter reporter vector containing four copies of the GAL4 binding site. Titration experiments were then performed using the identified compounds. […] Addition of RXR had no effect on the activation potential of fexaramine, fexarine, fexarene in this assay.

mouse FXR = molecular target: T2, mouse FXR (Mus musculus, UniProt Q60641); test: CV-1 transient transfection assay with natural promoters of FXR targets (hIBABP, hPLTP, hMRP-2); format: cell-based; conditions: for activation of IBABP promoter: hIBABP promoter; for concentration of maximum efficacy / activity on natural promoters: hIBABP, hPLTP, hMRP-2 promoters
T2 construct: expressed in transfected cells; host or cells: CV-1 (monkey)
T2 sequence (Q60641 1-488): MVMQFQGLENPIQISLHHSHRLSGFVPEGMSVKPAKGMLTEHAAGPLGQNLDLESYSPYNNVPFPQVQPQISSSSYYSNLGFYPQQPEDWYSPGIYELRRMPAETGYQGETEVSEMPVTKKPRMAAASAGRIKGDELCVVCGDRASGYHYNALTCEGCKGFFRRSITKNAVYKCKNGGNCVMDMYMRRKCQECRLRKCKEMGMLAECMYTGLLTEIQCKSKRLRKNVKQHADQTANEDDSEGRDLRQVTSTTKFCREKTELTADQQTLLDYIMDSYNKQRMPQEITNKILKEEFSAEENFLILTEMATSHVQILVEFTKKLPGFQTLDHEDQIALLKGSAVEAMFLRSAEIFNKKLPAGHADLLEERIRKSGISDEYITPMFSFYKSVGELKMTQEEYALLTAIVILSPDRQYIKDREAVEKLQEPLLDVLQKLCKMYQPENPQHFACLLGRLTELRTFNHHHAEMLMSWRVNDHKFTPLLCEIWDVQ
T2 sequence (P19793 1-462 partner): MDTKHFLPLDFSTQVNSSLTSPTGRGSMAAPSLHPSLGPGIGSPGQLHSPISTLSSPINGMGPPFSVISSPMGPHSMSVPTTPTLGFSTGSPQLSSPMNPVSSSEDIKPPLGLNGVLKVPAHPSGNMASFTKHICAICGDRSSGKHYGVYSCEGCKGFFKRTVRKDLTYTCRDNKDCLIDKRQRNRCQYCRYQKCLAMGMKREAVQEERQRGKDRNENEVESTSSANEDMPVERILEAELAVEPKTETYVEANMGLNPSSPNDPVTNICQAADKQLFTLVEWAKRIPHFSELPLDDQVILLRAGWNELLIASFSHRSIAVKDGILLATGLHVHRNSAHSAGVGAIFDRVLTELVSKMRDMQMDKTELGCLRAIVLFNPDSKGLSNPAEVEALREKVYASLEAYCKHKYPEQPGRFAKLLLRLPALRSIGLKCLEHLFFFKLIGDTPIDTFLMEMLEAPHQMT
Protocol: FIGS. 2A-2F collectively show the results of ligand activation of CV-1 cells co-transfected with FXR constructs pCMX-mFXR and pCMX-hRXR and a luciferase reporter gene containing various promoters as follows: FIG. 2A with a minimal TK promoter, FIG. 2B with a TK-ECRE*6 promoter, FIG. 2C with a TK-ER8*2 promoter, FIG. 2D with HIBABP promoter, FIG. 2E with a hPLTP promoter, or FIG. 2 with a FhMRP-2 promoter.
as §1
For this study, the following gene promoters were used: intestinal bile acid binding protein (IBABP; see, for example, Grober et al. (1999). Identification of a bile acid-responsive element in the human ileal bile acid-binding protein gene. Involvement of the farnesoid X receptor/9-is-retinoic acid receptor heterodimer. J Biol Chem. 274(42), 29749-54>, phospholipid transfer protein (PLTP) (Urizar et al (2000). The farnesoid X-activated receptor mediates bile acid activation of phospholipid transfer protein gene expression. J Biol Chem. 275(50), 39313-7) and multidrug resistance related protein 2 (MRP-2) (Kast et al. (2002), supra), which are all well characterized targets of FXR. The natural promoters of both the IBABP and PLTP genes contain one copy of an inverted repeat with a one base spacing (IR-1) while MRP-2 contains an ER-8 element. […] The most robust activation (28-fold) was seen on the IBABP promoter. Less robust (2-3 fold) but specific activation was observed on the PLTP and MRP-2 promoters.

Row | Compound | effect of addition of RXR on activation potential (GAL4-FXR LBD) | selectivity for FXR relative to other NHRs (GAL4-FXR LBD) | efficacy compared with GW4064 (GAL4-FXR LBD) | activation of chimeric FXR construct (GAL4-FXR LBD) | activation of IBABP promoter (mouse FXR) | concentration of maximum efficacy (mouse FXR) | activity on natural promoters (mouse FXR)
1 | COC(=O)/C=C/c1cccc(N(Cc2ccc(-c3ccc(N(C)C)cc3)cc2)C(=O)C2CCCCC2)c1 [fexaramine] | no effect | highly selective for FXR | more efficacious ligands for FXR than GW4064 | activate | 28 fold | 1 µM | 
2 | COC(=O)/C=C/c1cccc(N(Cc2ccc(-c3ccccc3OC)cc2)C(=O)C(C)C)c1 [SRI-1] |  |  |  | little or no activity |  |  | little or no activity
3 | COC(=O)/C=C/c1cccc(N(Cc2ccc(/C=C/c3ccccc3)cc2)C(=O)C2CCCCC2)c1 [fexarene] | no effect | highly selective for FXR | more efficacious ligands for FXR than GW4064 | activate | 28 fold | 1 µM | 
4 | COC(=O)/C=C/c1cccc(N(Cc2ccc(-c3ccc4c(c3)OCO4)cc2)C(=O)C2CCCCC2)c1 [fexarine] | no effect | highly selective for FXR | more efficacious ligands for FXR than GW4064 | activate | 28 fold | 1 µM | 
5 | COC(=O)/C=C/c1cccc(N(Cc2ccc(-c3ccc(C(C)(C)C)cc3)cc2)C(=O)C(C)C)c1 [SRI-2] |  |  |  | little or no activity |  |  | little or no activity
6 | CC(C)c1onc(-c2c(Cl)cccc2Cl)c1COc1ccc(/C=C/c2cccc(C(=O)O)c2)c(Cl)c1 [GW4064, reference compound] |  |  |  | activate | 28 fold | 1 µM | 
